Test results reported in US20150297579A1, “TREATMENT OF CANCER WITH POMALIDOMIDE IN A RENALLY IMPAIRED SUBJECT” (priority 2012, published 2015).

Test system: patients with relapsed/refractory multiple myeloma (RRMM)
Experiment: POM+LoDEX vs. HiDEX in RRMM: analysis of patients with moderate renal impairment
Assay type: in vivo, human
Protocol: Randomization was 2:1 to POM 4 mg (Day 1 to Day 21)+DEX 40 mg (20 mg for patients aged >75 y) qw; or DEX 40 mg (20 mg for patients aged >75 y) (Day 1-Day 4, Day 9-Day 12, and Day 17-Day 20) in a 28-D cycle. Treatment continued until PD or unacceptable adverse event (AE). The primary endpoint was progression-free survival (PFS). Secondary endpoints included overall survival (OS) and AEs. This analysis examined patients with or without moderate RI (CrCl<60 vs.≧60 mL/min).

## C[C@@H]1C[C@H]2[C@@H]3CCC4=CC(=O)C=C[C@]4(C)[C@@]3(F)[C@@H](O)C[C@]2(C)[C@@]1(O)C(=O)CO [HiDEX, (8S,9R,10S,11S,13S,14S,16R,17R)-9-fluoro-11,17-dihydroxy-17-(2-hydroxyacetyl)-10,13,16-trimethyl-6,7,8,9,10,11,12,13,14,15,16,17-dodecahydro-3H-cyclopenta[a]phenanthren-3-one]
CrCl <60 mL/min (moderate RI)
  Median OS (mo): 4.6 mo
  Median PFS (mo): 1.6 mo
CrCl ≧60 mL/min
  Median OS (mo): 9.2 mo
  Median PFS (mo): 1.8 mo
Moderate RI
  Discontinuation due to AE: 5%
  Gr 3/4 AE: anemia: 34%
  Gr 3/4 AE: infection: 24%
  Gr 3/4 AE: neutropenia: 15%
No moderate RI
  Discontinuation due to AE: 7%
Normal renal function
  Gr 3/4 AE: anemia: 26%
  Gr 3/4 AE: infection: 23%
  Gr 3/4 AE: neutropenia: 15%
